Data as given in ChEMBL document CHEMBL4308841, “Synthesis, in vitro antiproliferative activity, and kinase inhibitory effects of pyrazole-containing diarylureas and diarylamides” (Eur J Med Chem, 2018).
pIC50: −log10 of the molar value.

Experiments:
[1] = system: SNB-75; assay: Growth inhibition of human SNB75 cells incubated for 48 hrs by sulforhodamine B assay; assay type: functional, cell-based; conditions: SNB-75, 48 h
[2] = system: HOP-62; assay: Growth inhibition of human HOP62 cells incubated for 48 hrs by sulforhodamine B assay; assay type: functional, cell-based; conditions: HOP-62, 48 h
[3] = system: SF-295; assay: Growth inhibition of human SF295 cells assessed as cell growth at 0.01 uM incubated for 48 hrs by sulforhodamine B assay relative to control; assay type: functional; conditions: SF-295, 48 h, read-out: Activity
[4] = system: Malme-3M; assay: Growth inhibition of human MALME-3M cells assessed as cell growth at 0.01 uM incubated for 48 hrs by sulforhodamine B assay relative to control; assay type: functional; conditions: read-out: Activity
[5] = system: SK-OV-3; assay: Growth inhibition of human SKOV3 cells assessed as cell growth at 0.1 uM incubated for 48 hrs by sulforhodamine B assay relative to control; assay type: functional; conditions: SK-OV-3, 48 h, read-out: Activity
[6] = system: U-251; assay: Growth inhibition of human U251 cells incubated for 48 hrs by sulforhodamine B assay; assay type: functional, cell-based; conditions: U-251, 48 h
[7] = system: CAKI-1; assay: Growth inhibition of human Caki1 cells assessed as cell growth at 0.1 uM incubated for 48 hrs by sulforhodamine B assay relative to control; assay type: functional; conditions: CAKI-1, 48 h, read-out: Activity
[8] = system: Malme-3M; assay: Growth inhibition of human MALME-3M cells assessed as cell growth at 0.1 uM incubated for 48 hrs by sulforhodamine B assay relative to control; assay type: functional; conditions: read-out: Activity
[9] = system: NCI-H322M; assay: Growth inhibition of human NCI-H322M cells assessed as cell growth at 0.01 uM incubated for 48 hrs by sulforhodamine B assay relative to control; assay type: functional; conditions: read-out: Activity
[10] = system: SF-539; assay: Growth inhibition of human SF539 cells assessed as cell growth at 100 uM incubated for 48 hrs by sulforhodamine B assay relative to control; assay type: functional; conditions: SF-539, 48 h, read-out: Activity
[11] = system: HCC 2998; assay: Growth inhibition of human HCC2998 cells assessed as cell growth at 0.1 uM incubated for 48 hrs by sulforhodamine B assay relative to control; assay type: functional; conditions: HCC 2998, 48 h, read-out: Activity
[12] = system: Hs-578T; assay: Growth inhibition of human Hs578T cells assessed as cell growth at 1 uM incubated for 48 hrs by sulforhodamine B assay relative to control; assay type: functional; conditions: read-out: Activity
[13] = system: NCI-H322M; assay: Growth inhibition of human NCI-H322M cells incubated for 48 hrs by sulforhodamine B assay; assay type: functional, cell-based
[14] = system: UACC-62; assay: Growth inhibition of human UACC62 cells assessed as cell growth at 0.01 uM incubated for 48 hrs by sulforhodamine B assay relative to control; assay type: functional; conditions: UACC-62, 48 h, read-out: Activity
[15] = system: PC-3; assay: Growth inhibition of human PC3 cells assessed as cell growth at 100 uM incubated for 48 hrs by sulforhodamine B assay relative to control; assay type: functional; conditions: PC-3, 48 h, read-out: Activity
[16] = system: MDA-MB-435; assay: Growth inhibition of human MDA-MB-435 cells assessed as cell growth at 0.01 uM incubated for 48 hrs by sulforhodamine B assay relative to control; assay type: functional; conditions: MDA-MB-435, 48 h, read-out: Activity
[17] = system: UO-31; assay: Growth inhibition of human UO31 cells incubated for 48 hrs by sulforhodamine B assay; assay type: functional, cell-based; conditions: UO-31, 48 h
[18] = system: Hs-578T; assay: Growth inhibition of human Hs578T cells assessed as cell growth at 0.01 uM incubated for 48 hrs by sulforhodamine B assay relative to control; assay type: functional; conditions: read-out: Activity
[19] = system: NCI/ADR-RES; assay: Growth inhibition of human NCI/ADR-RES cells assessed as cell growth at 1 uM incubated for 48 hrs by sulforhodamine B assay relative to control; assay type: functional; conditions: read-out: Activity
[20] = system: HCT-15; assay: Growth inhibition of human HCT15 cells assessed as cell growth at 0.01 uM incubated for 48 hrs by sulforhodamine B assay relative to control; assay type: functional; conditions: HCT-15, 48 h, read-out: Activity
[21] = system: SK-MEL-2; assay: Growth inhibition of human SK-MEL-2 cells assessed as cell growth at 10 uM incubated for 48 hrs by sulforhodamine B assay relative to control; assay type: functional; conditions: SK-MEL-2, 48 h, read-out: Activity
[22] = system: U-251; assay: Growth inhibition of human U251 cells assessed as cell growth at 100 uM incubated for 48 hrs by sulforhodamine B assay relative to control; assay type: functional; conditions: U-251, 48 h, read-out: Activity
[23] = system: KM12; assay: Growth inhibition of human KM12 cells assessed as cell growth at 0.1 uM incubated for 48 hrs by sulforhodamine B assay relative to control; assay type: functional; conditions: KM12, 48 h, read-out: Activity
[24] = system: KM12; assay: Growth inhibition of human KM12 cells assessed as cell growth at 0.01 uM incubated for 48 hrs by sulforhodamine B assay relative to control; assay type: functional; conditions: KM12, 48 h, read-out: Activity
[25] = system: MDA-MB-231; assay: Growth inhibition of human MDA-MB-231 cells assessed as cell growth at 100 uM incubated for 48 hrs by sulforhodamine B assay relative to control; assay type: functional; conditions: MDA-MB-231, 48 h, read-out: Activity
[26] = system: CAKI-1; assay: Growth inhibition of human Caki1 cells assessed as cell growth at 0.01 uM incubated for 48 hrs by sulforhodamine B assay relative to control; assay type: functional; conditions: CAKI-1, 48 h, read-out: Activity
[27] = system: MOLT-4; assay: Growth inhibition of human MOLT4 cells assessed as cell growth at 100 uM incubated for 48 hrs by sulforhodamine B assay relative to control; assay type: functional; conditions: MOLT-4, 48 h, read-out: Activity
[28] = system: OVCAR-4; assay: Growth inhibition of human OVCAR4 cells assessed as cell growth at 0.01 uM incubated for 48 hrs by sulforhodamine B assay relative to control; assay type: functional; conditions: OVCAR-4, 48 h, read-out: Activity
[29] = system: 786-0; assay: Growth inhibition of human 786-0 cells assessed as cell growth at 0.1 uM incubated for 48 hrs by sulforhodamine B assay relative to control; assay type: functional; conditions: 786-0, 48 h, read-out: Activity
[30] = system: NCI-H460; assay: Growth inhibition of human NCI-H460 cells assessed as cell growth at 100 uM incubated for 48 hrs by sulforhodamine B assay relative to control; assay type: functional; conditions: NCI-H460, 48 h, read-out: Activity
[31] = read-out: LC50 (the source's name)
[32] = read-out: pLC50 (the source's name) (converted)

With `COc1cc(Cl)cc(-c2nn(-c3cccc(NC(=O)c4cccc(C(F)(F)F)c4)c3)cc2-c2ccncc2)c1` the GI50 ([1]; read-out: GI50) was 5.52 µM, the CC50 [1, 31] was greater than 100 µM and the TGI ([1]; read-out: TGI) was greater than 100 µM. For the same molecule, the GI50 ([1]; read-out: pGI50 (converted)) was 7.08 µM, the CC50 [1, 32] was greater than 100 µM and the TGI ([1]; read-out: pTGI (converted)) was greater than 100 µM. It also gave a GI50 ([2]; read-out: GI50) greater than 100 µM, a CC50 [2, 31] greater than 100 µM and a TGI ([2]; read-out: TGI) greater than 100 µM. It also gave a GI50 ([2]; read-out: pGI50 (converted)) greater than 100 µM, a CC50 [2, 32] greater than 100 µM and a TGI ([2]; read-out: pTGI (converted)) greater than 100 µM. It also gave a growth at 0.01 µM [3] of 98%, a growth at 0.01 µM [4] of 58% and a growth at 0.1 µM [5] of 105%. The pIC50 [6] was 5.25, the GI50 ([6]; read-out: GI50) was 5.58 µM and the CC50 [6, 31] was greater than 100 µM. The TGI ([6]; read-out: TGI) was greater than 100 µM, the GI50 ([6]; read-out: pGI50 (converted)) was 5.62 µM and the CC50 [6, 32] was greater than 100 µM. For the same molecule, the TGI ([6]; read-out: pTGI (converted)) was greater than 100 µM, the growth at 0.1 µM [7] was 94% and the growth at 0.1 µM [8] was 90%. It also gave a growth at 0.01 µM [9] of 69%, a growth at 100 µM [10] of 53% and a growth at 0.1 µM [11] of 104%. For the same molecule, the growth at 1 µM [12] was 52%, the GI50 ([13]; read-out: GI50) was greater than 100 µM and the CC50 [13, 31] was greater than 100 µM. The TGI ([13]; read-out: TGI) was greater than 100 µM, the GI50 ([13]; read-out: pGI50 (converted)) was greater than 100 µM and the CC50 [13, 32] was greater than 100 µM. The TGI ([13]; read-out: pTGI (converted)) was greater than 100 µM, the growth at 0.01 µM [14] was 98% and the growth at 100 µM [15] was 17%. For the same molecule, the growth at 0.01 µM [16] was 98%, the pIC50 [17] was 5.57 and the GI50 ([17]; read-out: GI50) was 2.71 µM. The CC50 [17, 31] was greater than 100 µM, the TGI ([17]; read-out: TGI) was greater than 100 µM and the GI50 ([17]; read-out: pGI50 (converted)) was 2.69 µM. The CC50 [17, 32] was greater than 100 µM, the TGI ([17]; read-out: pTGI (converted)) was greater than 100 µM and the growth at 0.01 µM [18] was 97%. It also gave a growth at 1 µM [19] of 89%, a growth at 0.01 µM [20] of 56% and a growth at 10 µM [21] of 56.4%. It also gave a growth at 100 µM [22] of 41%, a growth at 0.1 µM [23] of 111% and a growth at 0.01 µM [24] of 110%. The growth at 100 µM [25] was -14%, the growth at 0.01 µM [26] was 95% and the growth at 100 µM [27] was 27%. The growth at 0.01 µM [28] was 106%, the growth at 0.1 µM [29] was 97% and the growth at 100 µM [30] was 30%.
